The values below come from patent US9725469B2, “Amino-oxazine and amino-dihydrothiazine compounds as beta-secretase modulators and methods of use” (Amgen Inc., priority 2012, dated 2017).

One data set has as its system beta amyloid. The following applies: patients in early stages of Alzheimer's Disease; cited from earlier work.
Data set [1] has as its system pigment epithelium of the rat's eye. The settings on record: higher compound dose given for three months; cited from earlier work.
The conditions of data set [2]: people of the terminated Ph I dosing trial; cited from earlier work.
The target of data set [3] is BACE 1 (beta secretase enzyme) (Homo sapiens, UniProt P56817). As to the kind of experiment: In vitro enzymatic BACE FRET assay. The following applies: average IC50, pH 4.2. The format is biochemical. How it is done:
In Vitro Enzymatic BACE FRET (Fluorescence Resonance Energy Transfer) Assay
The assay buffer used in this screen is 0.05 M acetate, pH 4.2, 10% DMSO final, 100 uM genapol (which is a nonionic detergent, below its Critical Micelle Concentration). The beta secretase enzyme (0.2 nM) is pre-incubated for one hour with inhibitors, typically in about 1 uL of DMSO according to a serial dilution, are added thereto. This assay is effectively started by the addition of FRET substrate (50 nM) and the combination is incubated for one hour. The FRET assay is terminated with by addition of Tris buffer, which raises the pH to neutrality, and the fluorescence is determined. The FRET substrate is a peptide with commercially available fluorophore and quencher, on opposite sides of the BACE cleavage site. Proteolytic cleavage of the FRET substrate releases quenching of fluorescence (excitation […] and […]).

The subject of data set [4] is Aβ40 in conditioned medium of cells stably expressing Amyloid Precursor Protein (APP). Put plainly: In vitro BACE cell-based assay (HEK cell assay, Aβ40 sandwich ELISA). The following applies: Homo sapiens, HEK293; average IC50, Aβ40, 24 h incubation. How it is done:
In Vitro BACE Cell-Based Assay
The cell-based assay measures inhibition or reduction of Aβ40 in conditioned medium of test compound treated cells expressing amyloid precursor protein.
Cells stably expressing Amyloid Precursor Protein (APP) were plated at a density of 40K cells/well in 96 well plates (Costar). The cells were cultivated for 24 hours at 37° C. and 5% CO2 in DMEM supplemented with 10% FBS. The test compounds were then added to cells in 10-point dose response concentrations with the starting concentration being either 100 μM or 10 μM. The compounds were diluted from stock solutions in DMSO and the final DMSO concentration of the test compounds on cells was 0.1%. After 24 h of incubation with the test compounds the supernatant conditioned media was collected and the Aβ 40 levels were determined using a sandwich ELISA. The IC50 of the compound was calculated from the percent of control or percent inhibition of Aβ 40 as a function of the concentration of the test compound.
The sandwich ELISA to detect Aβ 40 was performed in 96 well microtiter plates, which were pre-treated with goat anti-rabbit IgG (Pierce). The capture and detecting antibody pair that were used to detect Aβ 40 from cell supernatants were affinity purified pAb40 (Biosource) and biotinylated 6E10 (Signet Labs Inc.), respectively. The optimal concentration for the pAb40 antibody was 3 μg/ml in Superblock/TBS (Pierce) that was supplemented with 0.05% Tween 20 (Sigma). Optimal concentration for the detection antibody 6E10-biotinylated was 0.5 μg/ml in Superblock/TBS (Pierce) that had been supplemented with 2% normal goat serum and 2% normal mouse serum.
Cellular supernatants were incubated with the capture antibody for 3 h at 4° C., followed by 3 wash steps in TBS-tween (0.05%). The detecting antibody incubation was for 2 h at 4° C., again followed by the wash steps as described previously. The final readout of the ELISA is Time-Resolved Fluorescence (counts per minute) using Delfia reagents Streptavidin-Europium and Enhancement solutions (Perkin Elmer) and the Victor 2 multilabel counter (Perkin Elmer).
On the technique in general: ELISA stands for enzyme-linked immunosorbent assay.

The next data set concerns the target T1, Cathepsin D (Homo sapiens, UniProt P07339).
T1 construct: made in house; host or cells: CHO cells
As to the kind of experiment: In vitro enzymatic Cat D (Cathepsin D) FRET assay. The format is biochemical. The settings on record: average IC50, pH 3.5. How it is done: In Vitro Enzymatic Cat D (Cathepsin D) FRET (Fluorescence Resonance Energy Transfer) Assay
Recombinant CathepsinD was expressed in CHO cells. The assay buffer for CathepsinD is 0.05 M citrate pH 3.5, 10% DMSO final, 5 mM CHAPS. The CathepsinD enzyme (9 nM) is pre-incubated for one hour with inhibitors, typically in about 1 uL of DMSO according to a serial dilution, is added thereto. The assays are effectively started by the addition of different FRET substrates (20 nM for CathepsinD) and the combination is incubated for one hour. The FRET assay is terminated with by addition of Tris buffer, which raises the pH to neutrality, and the fluorescence is determined. The FRET substrate is a peptide with commercially available fluorophore and quencher, on opposite sides of the BACE cleavage site. The CathepsinD substrate peptide sequence is based on sequence #1 of Table 1 from Gulnik et al. FEBS Letters v413 p 379-384 1997. Proteolytic cleavage of the FRET substrate releases quenching of fluorescence (CathepsinD excitation 500 nm and emission 580 nm). […]

The test system of a further data set is Abeta 40. Put plainly: In vivo inhibition of beta-secretase: Abeta 40 reduction in rat CSF and brain. The settings on record: after 4 hrs; for % reduction of rat CSF Abeta 40 levels at 10 mpk: Abeta 40, rat CSF; for % reduction of rat brain levels at 10 mpk: Abeta 40, rat brain. From the text:
In Vivo Inhibition of Beta-Secretase
Several animal models, including mouse, rat, dog, and monkey, may be used to screen for inhibition of beta-secretase activity in vivo following administration of a test compound sample. Animals used in this invention can be wild type, transgenic, or gene knockout animals. For example, the Tg2576 mouse model, prepared and conducted as described in Hsiao et al., 1996, Science 274, 99-102, and other non-transgenic or gene knockout animals are useful to analyze in vivo inhibition of Amyloid beta peptide (Abeta) production in the presence of inhibitory test compounds. Generally, 2 to 18 month old Tg2576 mice, gene knockout mice or non-transgenic animals are administered test compounds formulated in vehicles, such as cyclodextran, phosphate buffers, hydroxypropyl methylcellulose or other suitable vehicles. One to twenty-four hours following the administration of compound, animals are sacrificed, and brains as well as cerebrospinal fluid (CSF) and plasma are removed for analysis of A-beta levels and drug or test compound concentrations (Dovey et al., 2001, Journal of Neurochemistry, 76, 173-181) Beginning at time 0, animals are administered by oral gavage, or other means of delivery such as intravenous injection, an inhibitory test compound of up to 100 mg/kg in a standard, conventional formulation, such as 2% hydroxypropyl methylcellulose, 1% Tween80. A separate group of animals receive 2% hydroxypropyl methylcellulose, 1% Tween80 alone, containing no test compound, and serve as a vehicle-control group. At the end of the test period, animals are sacrificed and brain tissues, plasma or cerebrospinal fluid are collected. Brains are either homogenized in 10 volumes (w/v) of 0.2% diethylamine (DEA) in 50 mM NaCl (Best et al., 2005, Journal of Pharmacology and Experimental Therapeutics, 313, 902-908), or in 10 volumes of 0.5% TritonX-100 in Tris-buffered saline (pH at about 7.6). Homogenates are centrifuged at 355,000 g, 4° C. for 30 minutes. CSF or brain supernatants are then analyzed for the presence of A-beta peptide by specific sandwich ELISA assays based on ECL (Electrochemiluminescence) technology. For example, rat Abeta40 is measured using biotinylated-4G8 (Signet) as a capture antibody and Fab40 (an in-house antibody specific to the C-terminal of Abeta40) as a detection antibody. For example, 4 hours after administration of 30 mg/kg oral dose of the test compound in 2% hydroxypropyl methylcellulose, 1% Tween80 (pH2.2) to 200 g male Sprague Dawley rats, amyloid beta peptide levels are measured for reduction by X % and Y % in cerebrospinal fluid and brain, respectively, when compared to the levels measured in the vehicle-treated rats.
Actual vehicles used: Oral: 2% HPMC, 1% Tween80, pH 2.2
The compounds of the invention may be shown to reduce the formation and/or deposition of amyloid beta peptide in the cerebrospinal fluid (CSF) as well as in the brain of a mouse or rat at either 3 mpk, 10 mpk or 30 mpk (mpk=mg compound per kg weight of the animal) dosing concentrations after 4 hrs.

T1 sequence (P07339 65-412, species assumed): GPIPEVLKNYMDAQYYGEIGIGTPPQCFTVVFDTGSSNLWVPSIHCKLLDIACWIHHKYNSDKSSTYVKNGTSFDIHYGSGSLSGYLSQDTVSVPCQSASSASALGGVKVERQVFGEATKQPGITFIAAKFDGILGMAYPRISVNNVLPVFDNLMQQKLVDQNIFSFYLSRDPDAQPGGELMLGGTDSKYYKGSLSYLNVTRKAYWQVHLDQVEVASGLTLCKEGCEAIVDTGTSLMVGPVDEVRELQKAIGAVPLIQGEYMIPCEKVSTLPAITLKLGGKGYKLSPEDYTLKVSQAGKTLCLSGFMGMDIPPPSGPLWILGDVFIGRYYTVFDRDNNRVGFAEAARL
BACE 1 (beta secretase enzyme), sequence (P56817 46-501): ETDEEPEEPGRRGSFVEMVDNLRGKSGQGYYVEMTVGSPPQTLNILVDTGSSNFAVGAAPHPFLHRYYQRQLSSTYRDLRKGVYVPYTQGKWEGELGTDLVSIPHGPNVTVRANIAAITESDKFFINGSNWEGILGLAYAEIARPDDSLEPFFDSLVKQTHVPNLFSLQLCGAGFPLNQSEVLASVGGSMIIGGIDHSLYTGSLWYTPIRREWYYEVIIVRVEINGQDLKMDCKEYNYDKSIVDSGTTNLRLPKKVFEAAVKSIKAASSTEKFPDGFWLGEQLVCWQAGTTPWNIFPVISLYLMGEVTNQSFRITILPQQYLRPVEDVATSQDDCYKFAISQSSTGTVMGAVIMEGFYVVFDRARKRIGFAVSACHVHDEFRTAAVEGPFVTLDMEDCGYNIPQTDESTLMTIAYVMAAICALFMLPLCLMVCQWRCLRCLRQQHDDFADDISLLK

Turning to “Solanezumab: a monoclonal antibody which targets and binds to the central region of beta amyloid; Phase III clinical molecule”, the “slowing of the rate of cognitive decline and memory loss” value in the data set with beta amyloid is recorded as “approximately 30%”.

For the compound `C[C@@]1(c2cc(-c3cncnc3)c(F)cc2F)CCSC(N)=N1` [LY 2811376], in data set [1], the “eye toxicity finding in rat” value is on record as “damaged the pigment epithelium of the rat's eye”. The “eye assessments in people” value in data set [2] was “did not show any abnormalities”.

Turning to `COc1cnc2c(Nc3ccc4c(c3)[C@@]3(CCSC(N)=N3)c3cc(C5=CCOCC5)nc(F)c3O4)nccc2c1` [Example 32, (5S)-3-(3,6-dihydro-2H-pyran-4-yl)-1-fluoro-N~7~-(3-methoxy-1,7-naphthyridin-8-yl)-5′,6′-dihydrospiro[chromeno[2,3-c]pyridine-5,4′-[1,3]thiazine]-2′,7-diamine], the figures for the IC50 (in data set [3]; in data set [4]; on Cathepsin D) were 4.4 nM, 3.3 nM and 373 µM, respectively. The “% reduction of rat CSF Abeta 40 levels at 10 mpk” value in the data set with Abeta 40 amounted to 71%. Moreover, in the data set with Abeta 40, the “% reduction of rat brain levels at 10 mpk” value was found to be 47%.

Regarding `COc1cnc2c(Nc3ccc4c(c3)[C@@]3(CCSC(N)=N3)c3cc(C5=CCCOC5)ncc3O4)nccc2c1` [Example 34, (5S)-3-(5,6-dihydro-2H-pyran-3-yl)-N~7~-(3-methoxy-1,7-naphthyridin-8-yl)-5′,6′-dihydrospiro[chromeno[2,3-c]pyridine-5,4′-[1,3]thiazine]-2′,7-diamine], the IC50 in data set [3] was 13.2 nM; in data set [4], 5.4 nM; on Cathepsin D, 336 µM. The “% reduction of rat CSF Abeta 40 levels at 10 mpk” value in the data set on Abeta 40 was 44%. In addition, the “% reduction of rat brain levels at 10 mpk” value with Abeta 40 is reported as 5%.

Take `C=C(C)c1cc2c(cn1)Oc1ccc(Nc3nccc4cc(OC)cnc34)cc1[C@@]21CCOC(N)=N1` [Example 37, (5S)-N~7~-(3-methoxy-1,7-naphthyridin-8-yl)-3-(1-methylethenyl)-5′,6′-dihydrospiro[chromeno[2,3-c]pyridine-5,4′-[l,3]oxazine]-2′,7-diamine]: the IC50 in data set [3] is 17.8 nM; in data set [4], 3.8 nM; at Cathepsin D it was 546 µM. In the data set with Abeta 40, the “% reduction of rat CSF Abeta 40 levels at 10 mpk” value turned out to be 38%. The “% reduction of rat brain levels at 10 mpk” value in the data set on Abeta 40 is reported as 32%.

The term IC50 denotes the midpoint of a concentration-inhibition curve.
